Results on six molecules are retold here after patent US4960883A, “Piperazines and homopiperazines” (Kowa Company, Ltd., priority 1988, dated 1990).

In the test the test system is Rabbit PRP, ADP-induced platelet aggregation. The experiment in a line: Inhibitory effect on ADP-induced platelet aggregation. It is filed as cell-based. Conditions: ADP (2 μm); for Platelet aggregation inhibitory concentration: concentration at which the inhibition rate (%) in parentheses was found. As for the experimental part: (B) Inhibitory effect on ADP-induced platelet aggregation
Rabbit PRP (250 μl) was preincubated with drug samples ([…]) of aqueous solution or 1 µl of DMSO solution) at 37° C. for 1 minute, and ADP (2 μm)-induced platelet aggregation was measured by aggregometer (NKK HEMA TRACERl Model PAT-4M). Inhibitory effects of the drugs were estimated from the standard curve of maximal aggregation.

Take `CC(C)COCC(CN1CCN(C(=O)CCO[N+](=O)[O-])CC1)N(C)Cc1ccccc1` (stereo not drawn) [Example 7]: the “Platelet aggregation inhibitory concentration” value is reported as 10^-4 mole/liter. Moreover, the “Platelet aggregation inhibition rate (%) in the parentheses” value (shortened to “Platelet aggregation inhibition rate (%)”) (at 10^-4 mole/liter) amounted to 33%.
Take `COc1ccc(S(=O)(=O)N2CCN(CC(COCC(C)C)N(C)Cc3ccccc3)CC2)cc1OC` (stereo not drawn) [Example 1, 1-(3,4-dimethoxybenzenesulfonyl)-4-(3-isobutoxy-2-methylbenzylaminopropyl)-piperazine]: the “Platelet aggregation inhibitory concentration” value is reported as 10^-5 mole/liter. In addition, the “Platelet aggregation inhibition rate (%)” value (at 10^-5 mole/liter) was 12%.
On to `CC(C)COCC(CN1CCN(S(C)(=O)=O)CC1)N(C)Cc1ccccc1` (stereo not drawn) [Example 10], for which the “Platelet aggregation inhibitory concentration” value is given as 10^-4 mole/liter. Also, the “Platelet aggregation inhibition rate (%)” value (at 10^-4 mole/liter) was determined as 35%.
As for `CC(C)COCC(CN1CCN(S(=O)(=O)c2cccc3c(Cl)cccc23)CC1)N(C)Cc1ccccc1` (stereo not drawn) [Example 9], the “Platelet aggregation inhibitory concentration” value is 10^-5 mole/liter. For the setting “at 10^-5 mole/liter”, the “Platelet aggregation inhibition rate (%)” value came to 8%.
As for `CC(C)COCC(CN1CCCN(S(=O)(=O)c2ccccc2)CC1)N(C)Cc1ccccc1` (stereo not drawn) [Example 2, 1-benzenesulfonyl-4-(3-isobutoxy-2-methylbenzylaminopropyl)homopiperazine], the “Platelet aggregation inhibitory concentration” value is listed as 10^-4 mole/liter. Further, the “Platelet aggregation inhibition rate (%)” value (at 10^-4 mole/liter) was determined as 60%.
With `CC(C)COCC(CN1CCN(S(=O)(=O)c2ccccc2)CC1)N(C)Cc1ccccc1` (stereo not drawn) [Example 11], the “Platelet aggregation inhibitory concentration” value is given as 10^-4 mole/liter. Further, the “Platelet aggregation inhibition rate (%)” value (at 10^-4 mole/liter) was determined as 33%.
